Like-named read-outs stand apart in the source and are kept apart here. Values belong to the compound of their own block, whether it stands above or below them.
What was measured:
[1] = tested on: enzyme decomposing R--Val--Val--X--Ala--X to Val--X--Ala--X; assay: Effect of various inhibitors and metal ions on enzyme activity; format: biochemical, Bacillus sphaericus ATCC 14577
Cathepsin D = Cathepsin D (Homo sapiens, UniProt P07339); assay: anti-cathepsin D activity; format: biochemical
Experimental: (§1) As an example of one of the physiological activities of the peptide and N-acyl derivatives thereof obtained according to the present invention, anti-pepsin and anti-cathepsin D activities and also acute toxicity are given in Table 8. The activities (ID50) were assayed according to the method described above and The Journal of Antibiotics 25 689 (1972). The anti-protease activities of the peptide and N-acyl derivatives thereof are extremely high.

[2] = tested on: enzyme decomposing R--Val--Val--X--Ala--X to Val--X--Ala--X; assay: Substrate specificity of the purified enzyme; format: biochemical, Bacillus sphaericus ATCC 14577; settings: in words
Experimental: A medium having the same composition as in Experiment 1 was prepared and 50 ml of the medium was poured into a 500 ml flask. After sterilization at 120° C for 10 minutes, the medium was inoculated with Bacillus sphaericus ATCC 14577 and incubated on a reciprocal shaker (120 r.p.m.) at 30° C for 24 hours to obtain a seed culture. To a 20l jar fermentor was added to 10l of the medium having the same composition, sterilized at 120° C for 15 minutes and inoculated with the seed culture. The cultivation was performed at 30° C with agitation (300 r.p.m.) and aeration (5l/minute).
After 15 hours growth, isovalery-L-valvy-L-valyl-4-amino-3-hydroxy-6-methylheptanoyl-L-alanyl-4-amino-3-hydroxy-6-methylheptanoic acid was added to the culture in a concentration of 50 meg/ml and the cultivation was continued for another 33 hours. Cells were harvested by centrifugation with a Spharpless centrifuge, suspended in 2l of cold 0.01M phosphate buffer, pH 7.0, and disrupted by sonication 20 Kc for 2 minutes. These and the following procedures were carried out under 4° C. A supernatant from the sonicate was heated at 60° C for 10 minutes at pH 7.0. The resulting precipitate was removed by centrifugation and 3.8 g of streptomycin sulfate was added to 1.7l of the supernatant. Precipitated nucleic acid was removed by centrifugation. […]

mice [3] = assay: Acute toxicity by abdominal injection; format: in vivo
Experimental: as §1
Acute toxicity was examined by administering the compounds to the mice by
(§2) The peptide Val--X--Ala--X and its N-acyl derivatives according to this invention have low toxicity; mice, dogs, rats and rabbits tolerated oral administration of more than 2.000 mg/kg. of the compounds, and LD50 of the compounds for animals when administered by intraperitoneal injections are shown in Table 8. Daily 250 mg/kg oral administrations of each of the compounds to rats for 90 days caused no toxicity, and the rats grew at the normal growth rate.

Stomach ulcers in rats = assay: Stress stomach ulcers in rats (method of Takagi et al.); format: in vivo; settings: 50 - 200 mg/kg immediately after the stress and once daily for 4 days
Experimental: Stomach ulcers in rats made by the method described by Takagi et al. in the Japanese Journal of Pharmacology, 18, 9-19, 1958, that is, placing male rats in a cage at 23° C. for 22 hours, are protected or therapeutically treated by the compounds. […] When the dose was 10 mg/kg, the inhibition percentage of the ulcers was 50 - 60%.

pepsin = biological target: T1, pepsin (Sus scrofa, UniProt P00791); assay: Assay of pepsin-inhibitory activity (casein digestion); format: biochemical
T1 construct: purchased SIGMA 2XCRY (grade as printed; no catalogue number)
Experimental: Assay of pepsin-inhibitory activity in this invention was performed according to the following method: A mixture of 1 ml of 0.6%, by weight, highly purified case in dissolved in 0.08 M lactate buffer solution, pH 2.2, 0.7 ml of 0.02M KCl--HCl buffer solution, pH 2.0, and 0.2 ml of solution containing the compound sample was incubated at 37° C for 3 minutes. To this mixture 4 meg of pepsin (SIGMA, 2XCRY) dissolved in 0.1 ml of 0.2M KCl--HCl buffer solution were added. The mixture was incubated at 37° C for 30 minutes. The reaction was stopped by the addition of 2.0 ml of 1.7M perchloric acid. After 1 hour at room temperature, the optical density (a) of the supernatant liquid was read at 280 mμ. An inhibition rate was obtained according to:
where (b) is the optical density at 280 mμ of the tube without the sample solution.
The ID50 is defined as the amount necessary for 50% of the inhibition rate.

Solubility in solvents = format: physicochemical
dogs = assay: Tolerated oral administration; format: in vivo
Experimental: as §2

mice [4] = assay: Tolerated oral administration; format: in vivo
Experimental: as §2

rabbits = assay: Tolerated oral administration; format: in vivo
Experimental: as §2

rats = assay: Tolerated oral administration; format: in vivo
Experimental: as §2

[5] = Concentration 2 mM, control 100
[6] = Concentration 10 mM, control 100

Cathepsin D, sequence (P07339 65-412, species assumed): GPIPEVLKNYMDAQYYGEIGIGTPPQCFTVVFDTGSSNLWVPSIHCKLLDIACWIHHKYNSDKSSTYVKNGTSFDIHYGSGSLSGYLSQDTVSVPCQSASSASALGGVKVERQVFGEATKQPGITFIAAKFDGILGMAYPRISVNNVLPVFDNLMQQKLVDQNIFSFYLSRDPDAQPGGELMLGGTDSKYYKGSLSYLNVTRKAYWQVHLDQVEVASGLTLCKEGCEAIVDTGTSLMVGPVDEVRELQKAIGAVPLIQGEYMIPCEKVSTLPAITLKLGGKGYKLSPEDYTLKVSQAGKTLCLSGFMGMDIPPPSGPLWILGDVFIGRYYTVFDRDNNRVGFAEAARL
T1 sequence (P00791 60-385): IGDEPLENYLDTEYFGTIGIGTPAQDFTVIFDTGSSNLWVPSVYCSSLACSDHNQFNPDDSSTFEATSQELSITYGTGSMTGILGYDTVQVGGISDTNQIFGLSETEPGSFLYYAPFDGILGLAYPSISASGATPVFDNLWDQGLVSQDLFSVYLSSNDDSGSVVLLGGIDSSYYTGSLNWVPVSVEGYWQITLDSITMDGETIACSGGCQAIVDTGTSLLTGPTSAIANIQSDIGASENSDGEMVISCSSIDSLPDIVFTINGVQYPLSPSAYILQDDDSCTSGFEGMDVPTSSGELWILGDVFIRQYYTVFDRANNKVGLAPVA

Compound: OCCS [β-Mercaptoethanol]
Inhibition of the enzyme ([1]; 2mM): Inhibition
Relative activity [1, 5]: 0

Compound: CC(C)C[C@H](NC(=O)[C@H](C)NC(=O)C[C@H](O)[C@H](CC(C)C)NC(=O)[C@@H](NC(=O)C(C)C)C(C)C)[C@@H](O)CC(=O)O [Isobutyryl--Val--X--Ala--X, N--isobutyryl--Val--X--Ala--X]
IC50 (Cathepsin D): 489 nM

Relative activity [1, 5]: 30
Compound: O=C(O)CN(CCN(CC(=O)O)CC(=O)O)CC(=O)O [Ethylenediaminetetraacetic Acid]

Compound: O=C(O)CI [Monoiodoacetic Acid]
Relative activity [1]: 84

Compound: CC(=O)[O-].CC(=O)[O-].[Hg+2] [Mercuric Acetate]
Relative activity [1]: 0

susceptibility to the enzyme (hydrolysis) [2]: not split
Compound: CC(C)CC(=O)N[C@H](C(=O)O)C(C)C [IVA--Val]

Compound: [Cl-].[Cl-].[Zn+2] [Zinc Chloride]
Relative activity [1, 5]: 66
Relative activity [1, 6]: 44

Inhibition of the enzyme ([1]; 2mM): Inhibition
Relative activity [1, 5]: 0
Compound: O[C@H](CS)[C@H](O)CS (racemic) [Dithiothreitol]

Compound: CCCCCCCCCCCCCCCC(=O)N[C@H](C(=O)N[C@@H](CC(C)C)[C@@H](O)CC(=O)N[C@@H](C)C(=O)N[C@@H](CC(C)C)[C@@H](O)CC(=O)O)C(C)C [Palmitoyl--Val--X--Ala--X, N--palmitoyl--Val--X--Ala--X]
IC50 (Cathepsin D): 1480 nM

Compound: O=C(O)c1cc[c]([Hg][Cl])cc1 [p-Chloromercuribenzoate]
Inhibition of the enzyme [1]: Inhibition
Relative activity [1, 5]: 2

Compound: CC(C)CC(NC(=O)[C@H](C)NC(=O)CC(O)C(CC(C)C)NC(=O)[C@@H](NC(=O)COc1ccccc1)C(C)C)C(O)CC(=O)O (stereo partly drawn) [Phenoxyacetyl--Val--X--Ala--X, n--phenoxyacetyl--Val--X--Ala--X]
IC50 (Cathepsin D): 12.6 nM
Acute toxicity(mg/kg) LD50 (mice [3]): 1500 mg/kg

Compound: CC(C)CC(=O)N[C@H](C(=O)N[C@H](C(=O)N[C@@H](CC(C)C)[C@@H](O)CC(=O)N[C@@H](C)C(=O)N[C@@H](CC(C)C)[C@@H](O)CC(=O)O)C(C)C)C(C)C [pepstatin]
cure of ulcers (Stomach ulcers in rats): rapid cure of ulcers

Compound: [N-]=[N+]=[N-].[Na+] [NaN3]
Relative activity [1]: 100

Compound: CC(C)CC(=O)N[C@H](C(=O)N[C@@H](CC(C)C)[C@@H](O)CC(=O)N[C@@H](C)C(=O)N[C@@H](CC(C)C)[C@@H](O)CC(=O)O)C(C)C [Isovaleryl--Val--X--Ala--X, N--isovaleryl--Val--X--Ala--]
IC50 (Cathepsin D): 76.7 nM
Acute toxicity(mg/kg) LD0 (mice [3]): ≥ 3000 mg/kg

Compound: [Cl][Hg][Cl] [HgCl2]
Inhibition of the enzyme ([1]; 2mM): Inhibition

Inhibition of the enzyme ([1]; 2mM): Inhibition
Relative activity [1, 5]: 0
Compound: O=C1CCC(=O)N1Br [N-Bromosuccinimide]

Compound: CC(C)C[C@H](NC(=O)[C@H](C)NC(=O)C[C@H](O)[C@H](CC(C)C)NC(=O)[C@@H](NC(=O)c1ccccc1)C(C)C)[C@@H](O)CC(=O)O [Benzoyl--Val--X--Ala--X, N--benzoyl--Val--X--Ala--X]
IC50 (pepsin): 51.1 nM
IC50 (Cathepsin D): 82.4 nM
Acute toxicity(mg/kg) LD50 (mice [3]): 1350 mg/kg

Compound: CC(C)C[C@H](NC(=O)[C@H](C)NC(=O)C[C@H](O)[C@H](CC(C)C)NC(=O)[C@@H](NC(=O)C(C)Oc1ccccc1)C(C)C)[C@@H](O)CC(=O)O (stereo partly drawn) [Phenoxypropionyl--Val--X--Ala--X, N--2--phenoxypropionyl--Val--X--Ala--X]
IC50 (Cathepsin D): 15.4 nM
Acute toxicity(mg/kg) LD50 (mice [3]): 2100 mg/kg

Compound: c1cnc2c(c1)ccc1cccnc12 [o-Phenanthroline]
Inhibition of the enzyme ([1]; 2mM): Inhibition
Relative activity [1, 5]: 0

Compound: CC(=O)[O-].CC(=O)[O-].[Pb+2] [Lead Acetate]
Relative activity [1]: 43

Compound: [Ca+2].[Cl-].[Cl-] [Calcium Choride]
increase in activity ([1]; 10 mM): 29%
Relative activity [1, 5]: 110
Relative activity [1, 6]: 129

Compound: CC(C)C[C@H](NC(=O)[C@H](C)NC(=O)C[C@H](O)[C@H](CC(C)C)NC(=O)[C@@H](N)C(C)C)[C@@H](O)CC(=O)O [Val--X--Ala--X, L-valyl-4-amino-3-hydroxy-6-methylheptanoyl-L-alanyl-4-amino-3-hydroxy-6-methylheptanoic acid]
IC50 (Cathepsin D): 12900 nM
Acute toxicity(mg/kg) LD0 (mice [3]): ≥ 5000 mg/kg
solubility (Solubility in solvents; ether, ethyl acetate, and butyl acetate): insoluble
solubility (Solubility in solvents; methanol, ethanol, pyridine, and acetic acid): soluble
solubility (Solubility in solvents; n-proponal, n-butanol, n-amyl alcohol and acetone): slightly soluble
tolerated oral administration (dogs): more than 2.000 mg/kg
tolerated oral administration (mice [4]): more than 2.000 mg/kg
tolerated oral administration (rabbits): more than 2.000 mg/kg
tolerated oral administration (rats): more than 2.000 mg/kg

Compound: CC(=O)N[C@H](C(=O)NC(CC(C)C)C(O)CC(=O)N[C@@H](C)C(=O)NC(CC(C)C)C(O)CC(=O)O)C(C)C (stereo partly drawn) [Acetyl--Val--X--Ala--X, N--acetyl--Val--X--Ala--X]
IC50 (pepsin): 56.9 nM
IC50 (Cathepsin D): 771 nM
Acute toxicity(mg/kg) LD0 (mice [3]): ≥ 4000 mg/kg

Compound: [Cl][Co][Cl] [Cobalt Chloride]
increase in activity ([1]; 2mM): 34%
increase in activity ([1]; 10 mM): 66%

Source: US4055468A, “Processes for producing physiologically active peptide and its N-acyl derivatives” (priority 1974, dated 1977)
